From the NIST ThermoML archive (doi:10.1016/j.jct.2006.07.017)

Assay: xn = mol fraction of the nth substance listed
Settings: 101 kPa, Liquid

Cc1ccccc1C [1,2-dimethylbenzene] + CN(C)C=O
Settings	mass density [kg/m3]
293.15 K, x1 = 0.0555	943.56
293.15 K, x1 = 0.1111	938.71
293.15 K, x1 = 0.1754	933.3
293.15 K, x1 = 0.2352	928.47
293.15 K, x1 = 0.2952	923.8
293.15 K, x1 = 0.3562	919.23
293.15 K, x1 = 0.4251	914.29
293.15 K, x1 = 0.4865	910.06
293.15 K, x1 = 0.5484	905.95
293.15 K, x1 = 0.612	901.89
293.15 K, x1 = 0.6785	897.8
293.15 K, x1 = 0.7325	894.58
293.15 K, x1 = 0.7954	890.96
293.15 K, x1 = 0.8654	887.04
293.15 K, x1 = 0.9325	883.4
303.15 K, x1 = 0.0652	933.58
303.15 K, x1 = 0.1251	928.39
303.15 K, x1 = 0.1854	923.37
303.15 K, x1 = 0.2462	918.5
303.15 K, x1 = 0.3125	913.42
303.15 K, x1 = 0.3785	908.59
303.15 K, x1 = 0.4358	904.56
303.15 K, x1 = 0.4962	900.47
303.15 K, x1 = 0.5521	896.83
303.15 K, x1 = 0.6125	893.04
303.15 K, x1 = 0.6784	889.05
303.15 K, x1 = 0.7451	885.17
303.15 K, x1 = 0.8012	882.01
303.15 K, x1 = 0.8658	878.48
303.15 K, x1 = 0.9485	874.12
313.15 K, x1 = 0.0441	926.11
313.15 K, x1 = 0.1025	920.99
313.15 K, x1 = 0.1762	914.82
313.15 K, x1 = 0.2341	910.18
313.15 K, x1 = 0.2951	905.51
313.15 K, x1 = 0.3756	899.63
313.15 K, x1 = 0.4415	895.06
313.15 K, x1 = 0.5012	891.08
313.15 K, x1 = 0.5685	886.8
313.15 K, x1 = 0.6215	883.55
313.15 K, x1 = 0.6865	879.72
313.15 K, x1 = 0.7451	876.39
313.15 K, x1 = 0.8021	873.25
313.15 K, x1 = 0.8654	869.88
313.15 K, x1 = 0.9448	865.79
323.15 K, x1 = 0.0485	916.16
323.15 K, x1 = 0.1124	910.62
323.15 K, x1 = 0.1852	904.61
323.15 K, x1 = 0.2521	899.35
323.15 K, x1 = 0.3251	893.91
323.15 K, x1 = 0.3952	888.96
323.15 K, x1 = 0.4658	884.2
323.15 K, x1 = 0.5315	879.99
323.15 K, x1 = 0.5952	876.08
323.15 K, x1 = 0.6584	872.37
323.15 K, x1 = 0.7251	868.61
323.15 K, x1 = 0.7952	864.81
323.15 K, x1 = 0.8456	862.18
323.15 K, x1 = 0.9012	859.35
323.15 K, x1 = 0.9599	856.45
333.15 K, x1 = 0.0521	906.08
333.15 K, x1 = 0.1245	899.89
333.15 K, x1 = 0.1895	894.6
333.15 K, x1 = 0.2451	890.29
333.15 K, x1 = 0.3021	886.06
333.15 K, x1 = 0.3685	881.35
333.15 K, x1 = 0.4214	877.76
333.15 K, x1 = 0.4912	873.24
333.15 K, x1 = 0.5584	869.09
333.15 K, x1 = 0.6121	865.92
333.15 K, x1 = 0.6725	862.48
333.15 K, x1 = 0.7315	859.26
333.15 K, x1 = 0.7943	855.95
333.15 K, x1 = 0.8651	852.38
333.15 K, x1 = 0.9432	848.58
343.15 K, x1 = 0.0625	895.2
343.15 K, x1 = 0.1325	889.33
343.15 K, x1 = 0.1952	884.33
343.15 K, x1 = 0.2658	878.99
343.15 K, x1 = 0.3321	874.24
343.15 K, x1 = 0.3965	869.86
343.15 K, x1 = 0.4652	865.41
343.15 K, x1 = 0.5325	861.27
343.15 K, x1 = 0.5912	857.83
343.15 K, x1 = 0.6524	854.4
343.15 K, x1 = 0.7125	851.16
343.15 K, x1 = 0.7895	847.19
343.15 K, x1 = 0.8462	844.4
343.15 K, x1 = 0.9012	841.76
343.15 K, x1 = 0.9577	839.14
353.15 K, x1 = 0.0715	884.27
353.15 K, x1 = 0.1252	879.83
353.15 K, x1 = 0.1858	875.05
353.15 K, x1 = 0.2521	870.08
353.15 K, x1 = 0.3215	865.16
353.15 K, x1 = 0.3865	860.79
353.15 K, x1 = 0.4251	858.31
353.15 K, x1 = 0.4851	854.59
353.15 K, x1 = 0.5584	850.27
353.15 K, x1 = 0.6221	846.71
353.15 K, x1 = 0.6825	843.48
353.15 K, x1 = 0.7551	839.78
353.15 K, x1 = 0.8154	836.84
353.15 K, x1 = 0.8851	833.58
353.15 K, x1 = 0.9411	831.05

Cc1cccc(C)c1 [1,3-dimethylbenzene] + CN(C)C=O
Settings	mass density [kg/m3]
293.15 K, x1 = 0.0541	942.31
293.15 K, x1 = 0.1151	935.54
293.15 K, x1 = 0.1752	929.18
293.15 K, x1 = 0.2332	923.31
293.15 K, x1 = 0.3021	916.67
293.15 K, x1 = 0.3661	910.82
293.15 K, x1 = 0.4341	904.88
293.15 K, x1 = 0.4984	899.53
293.15 K, x1 = 0.5624	894.44
293.15 K, x1 = 0.6165	890.3
293.15 K, x1 = 0.6751	885.98
293.15 K, x1 = 0.7315	881.96
293.15 K, x1 = 0.8085	876.67
293.15 K, x1 = 0.8758	872.21
293.15 K, x1 = 0.9425	867.93
303.15 K, x1 = 0.0625	932.16
303.15 K, x1 = 0.1251	925.21
303.15 K, x1 = 0.1852	918.87
303.15 K, x1 = 0.2515	912.21
303.15 K, x1 = 0.3251	905.23
303.15 K, x1 = 0.3895	899.45
303.15 K, x1 = 0.4517	894.13
303.15 K, x1 = 0.5214	888.45
303.15 K, x1 = 0.5865	883.4
303.15 K, x1 = 0.6485	878.8
303.15 K, x1 = 0.7125	874.25
303.15 K, x1 = 0.7885	869.05
303.15 K, x1 = 0.8458	865.29
303.15 K, x1 = 0.9012	861.75
303.15 K, x1 = 0.9666	857.68
313.15 K, x1 = 0.0569	923.43
313.15 K, x1 = 0.1125	917.21
313.15 K, x1 = 0.1812	909.9
313.15 K, x1 = 0.2554	902.46
313.15 K, x1 = 0.3251	895.89
313.15 K, x1 = 0.4023	889.03
313.15 K, x1 = 0.4785	882.65
313.15 K, x1 = 0.5445	877.43
313.15 K, x1 = 0.6054	872.82
313.15 K, x1 = 0.6695	868.19
313.15 K, x1 = 0.7254	864.3
313.15 K, x1 = 0.7812	860.56
313.15 K, x1 = 0.8452	856.41
313.15 K, x1 = 0.9032	852.77
313.15 K, x1 = 0.9577	849.43
323.15 K, x1 = 0.0482	914.86
323.15 K, x1 = 0.1065	908.29
323.15 K, x1 = 0.1684	901.67
323.15 K, x1 = 0.2341	895.02
323.15 K, x1 = 0.3051	888.24
323.15 K, x1 = 0.3659	882.75
323.15 K, x1 = 0.4252	877.65
323.15 K, x1 = 0.4932	872.11
323.15 K, x1 = 0.5641	866.62
323.15 K, x1 = 0.6247	862.17
323.15 K, x1 = 0.6951	857.22
323.15 K, x1 = 0.7554	853.17
323.15 K, x1 = 0.8251	848.68
323.15 K, x1 = 0.8812	845.18
323.15 K, x1 = 0.9572	840.6
333.15 K, x1 = 0.0547	904.33
333.15 K, x1 = 0.1122	897.9
333.15 K, x1 = 0.1815	890.59
333.15 K, x1 = 0.2551	883.29
333.15 K, x1 = 0.3151	877.68
333.15 K, x1 = 0.3821	871.76
333.15 K, x1 = 0.4554	865.64
333.15 K, x1 = 0.5054	861.68
333.15 K, x1 = 0.5625	857.35
333.15 K, x1 = 0.6262	852.72
333.15 K, x1 = 0.6785	849.09
333.15 K, x1 = 0.7412	844.91
333.15 K, x1 = 0.8054	840.8
333.15 K, x1 = 0.8714	836.74
333.15 K, x1 = 0.9548	831.81
343.15 K, x1 = 0.0625	893.44
343.15 K, x1 = 0.1214	886.95
343.15 K, x1 = 0.1851	880.31
343.15 K, x1 = 0.2451	874.4
343.15 K, x1 = 0.3121	868.17
343.15 K, x1 = 0.3852	861.78
343.15 K, x1 = 0.4451	856.83
343.15 K, x1 = 0.5054	852.1
343.15 K, x1 = 0.5641	847.72
343.15 K, x1 = 0.6214	843.62
343.15 K, x1 = 0.6885	839.06
343.15 K, x1 = 0.7451	835.37
343.15 K, x1 = 0.8125	831.16
343.15 K, x1 = 0.8821	827
343.15 K, x1 = 0.9525	822.95
353.15 K, x1 = 0.0521	884.42
353.15 K, x1 = 0.112	877.82
353.15 K, x1 = 0.1785	870.9
353.15 K, x1 = 0.2352	865.33
353.15 K, x1 = 0.2958	859.69
353.15 K, x1 = 0.3562	854.38
353.15 K, x1 = 0.4215	848.95
353.15 K, x1 = 0.4854	843.93
353.15 K, x1 = 0.5412	839.75
353.15 K, x1 = 0.6121	834.72
353.15 K, x1 = 0.6858	829.79
353.15 K, x1 = 0.7551	825.38
353.15 K, x1 = 0.8254	821.12
353.15 K, x1 = 0.8851	817.65
353.15 K, x1 = 0.9512	813.95
